This is an account of results in patent US20260159481A1, “INDOLE DERIVATIVE WITH SUBSTITUENT AND PHARMACEUTICAL USE” (MITOIMMUNE THERAPEUTICS INC., priority 2023, published 2026).

What is called Cmax is the maximum level reached in the sampled fluid or tissue. What is called Tmax is the time from dosing to the highest level. As usually defined, the half-life is how long it takes for the measured level to halve. Low readings indicate fast loss, high ones slow loss. A word on the EC50: it is the concentration giving half of the maximal effect.

Data set [1] is described as follows: Pharmacokinetics in plasma after oral administration to ICR mice. It counts as in vivo. The note with it: oral 10 mg/kg, plasma. On the procedure: Pharmacokinetic parameters may include the maximum plasma concentration (Cmax), the time to reach the maximum plasma concentration (Tmax), the area under the plasma concentration-time curve (AUCinf), and a half-life (t1/2).
Example Compound 27 was orally administered to ICR mice at a dose of 10 mg/kg. Drug concentrations in the plasma of mice were measured by HPLC-MS/MS spectroscopy 0.5, 1, 2, 4, 8, or 24 hours after administration.
The comparative example compound was orally administered to ICR mice at a dose of 10 mg/kg. The drug concentrations in the plasma of the mice were measured by HPLC-MS/MS 0.5, 1, 2, 4, 8, or 24 hours after administration.

For a further data set, the system named is cardiac cells (H9C2). In words: Protective effect against t-BHP-induced cell death in cardiac cells (LDH release). The conditions noted are these: Rattus norvegicus, t-BHP 400 PM, 2 hours, read-out: EC50, protective effect against cell death due to t-BHP induction. In kind it is cell-based. The procedure:
To confirm a protective effect on cardiac cells, H9C2 cells were seeded at 1.5×10^4 cells/well in a 96-well plate and cultured for 24 hours. The example compounds were diluted to have the final concentration of 0.001, 0.01, 0.03, 0.1, 0.3, 1, 3, 10, and 30 PM, respectively, and then added to different wells, and the resulting cells were cultured for 15 to 20 minutes. Tert-butyl hydroperoxide (t-BHP) was treated to have the final concentration of 400 PM, and the resulting cells were cultured for 2 hours. To confirm the cell death protection effect of each compound, the degree of extracellular secretion of lactate dehydrogenase (LDH) was measured using a cytotoxicity LDH assay kit [Dojindo; CK12]. Briefly, after 2 hours of t-BHP treatment on the cells, 70 μL of the supernatant was taken from the 96-well plate where the cells were cultured and transferred to a new 96-well plate. The assay buffer included in the kit was added at 70 μL/well (equal to that of the sample) and the plate was covered with foil to block light and allowed to react for 15 minutes at room temperature. While observing a color change of each sample, 35 μL/well of a stop solution was added, an absorbance at 490 nm was measured using an iD3 spectrophotometer, and an EC50 value was calculated.
On the technique in general: LDH in the medium is a marker of cell lysis.

For the compound `OCc1cc(NC2CCCC2)c2[nH]c(-c3ccccc3)cc2c1` [Comparative Example, [7-(cyclopentylamino)-2-phenyl-1H-indol-5-yl]methanol, reference compound], in data set [1] (mouse), the Cmax was 2110 ng/mL, the Tmax was 1 h and the half-life is 1.4 h. This compound also had a concentration at 0.5 h in data set [1] (mouse, 0.5 hr) of 1640 ng/mL. Further, in data set [1] (mouse, 1 hr), the concentration at 1 h is 2110 ng/mL. The compound further displayed a concentration at 2 h in data set [1] (mouse, 2 hr) of 1120 ng/mL. The concentration at 4 h in data set [1] (mouse, 4 hr) came to 389 ng/mL. The concentration at 8 h in data set [1] (mouse, 8 hr) was 51 ng/mL. For the same compound, in data set [1], the AUCinf is listed as 5,459 ng · hr/mL and the area under the plasma concentration-time curve (AUCinf) turned out to be 5460 ng·h/mL.

`c1ccc(-c2cc3cc(COC4CCOCC4)cc(NC4CCOCC4)c3[nH]2)cc1` [Example 37, 2-phenyl-N-(tetrahydro-2H-pyran-4-yl)-5-(((tetrahydro-2H-pyran-4-yl)oxy)methyl)-1H-indol-7-amine]: in the data set on cardiac cells (H9C2), the EC50 was ≤ 300 nM.

Take `OC1CCC(OCCOCc2cc(NC3CCOCC3)c3[nH]c(-c4ccccc4)cc3c2)CC1` (stereo not drawn) [Example 38, 4-(2-((2-phenyl-7-((tetrahydro-2H-pyran-4-yl)amino)-1H-indol-5-yl)methoxy)ethoxy)cyclohexan-1-ol]: the EC50 with cardiac cells (H9C2) is > 1000 nM.

As for `FCCOCc1cc(NC2CCOCC2)c2[nH]c(-c3ccccc3)cc2c1` [Example 39, 5-((2-fluoroethoxy)methyl)-2-phenyl-N-(tetrahydro-2H-pyran-4-yl)-1H-indol-7-amine], the EC50 in the data set with cardiac cells (H9C2) was ≤ 300 nM.

As to `c1ccc(-c2cc3cc(COCCN4CCOCC4)cc(NC4CCOCC4)c3[nH]2)cc1` [Example 42, 5-((2-morpholinoethoxy)methyl)-2-phenyl-N-(tetrahydro-2H-pyran-4-yl)-1H-indol-7-amine], the EC50 in the data set with cardiac cells (H9C2) is ≤ 300 nM.

In the case of `O=S1(=O)CCN(CCOCc2cc(NC3CCCC3)c3[nH]c(-c4ccccc4)cc3c2)CC1` [Example 43, 4-(2-((7-(cyclopentylamino)-2-phenyl-1H-indol-5-yl)methoxy)ethyl)thiomorpholine 1,1-dioxide], the EC50 with cardiac cells (H9C2) was ≤ 300 nM.

In the case of `CS(=O)(=O)CCOCc1cc(NC2CCCC2)c2[nH]c(-c3ccccc3)cc2c1` [Example 44, N-cyclopentyl-5-((2-(methylsulfonyl)ethoxy)methyl)-2-phenyl-1H-indol-7-amine], the half-maximal effective concentration (EC50) in the data set on cardiac cells (H9C2) was ≤ 300 nM.

Take `CS(=O)(=O)CCOCc1cc(NC2CCOCC2)c2[nH]c(-c3ccccc3)cc2c1` [Example 45, 5-((2-(methylsulfonyl)ethoxy)methyl)-2-phenyl-N-(tetrahydro-2H-pyran-4-yl)-1H-indol-7-amine]: in the data set with cardiac cells (H9C2), the EC50 is ≤ 300 nM.

In the case of `c1ccc(-c2cc3cc(COCCN4CCSCC4)cc(NC4CCOCC4)c3[nH]2)cc1` [Example 46, 2-phenyl-N-(tetrahydro-2H-pyran-4-yl)-5-((2-thiomorpholinoethoxy)methyl)-1H-indol-7-amine], the EC50 in the data set with cardiac cells (H9C2) is ≤ 300 nM.

Turning to `O=S1(=O)CCN(CCOCc2cc(NC3CCOCC3)c3[nH]c(-c4ccccc4)cc3c2)CC1` [Example 47, 4-(2-((2-phenyl-7-((tetrahydro-2H-pyran-4-yl)amino)-1H-indol-5-yl)methoxy)ethyl)thiomorpholine 1,1-dioxide], in the data set with cardiac cells (H9C2), the EC50 fell in the range of 300 to 1000 nM.

On to `OCCNCCOCc1cc(NC2CCOCC2)c2[nH]c(-c3ccccc3)cc2c1` [Example 48, 2-((2-((2-phenyl-7-((tetrahydro-2H-pyran-4-yl)amino)-1H-indol-5-yl)methoxy)ethyl)amino)ethan-1-ol], for which, in the data set on cardiac cells (H9C2), the EC50 was 300 to 1000 nM.

Consider `COCCNC(=O)c1cc(NC2CCOCC2)c2[nH]c(-c3ccccc3)cc2c1` [Example 49, N-(2-methoxyethyl)-2-phenyl-7-((tetrahydro-2H-pyran-4-yl)amino)-1H-indol-5-carboxamide], for which the EC50 in the data set on cardiac cells (H9C2) was ≤ 300 nM.

Consider `COCCNCc1cc(NC2CCOCC2)c2[nH]c(-c3ccccc3)cc2c1` [Example 50, 5-(((2-methoxyethyl)amino)methyl)-2-phenyl-N-(tetrahydro-2H-pyran-4-yl)-1H-indol-7-amine], for which, in the data set on cardiac cells (H9C2), the EC50 is ≤ 300 nM.

On to `COCCN(C)C(=O)c1cc(NC2CCOCC2)c2[nH]c(-c3ccccc3)cc2c1` [Example 51, N-(2-methoxyethyl)-N-methyl-2-phenyl-7-((tetrahydro-2H-pyran-4-yl)amino)-1H-indole-5-carboxamide], for which the EC50 in the data set on cardiac cells (H9C2) is ≤ 300 nM.

Take `COCCOCCN(C)C(=O)c1cc(NC2CCOCC2)c2[nH]c(-c3ccccc3)cc2c1` [Example 52, N-(2-(2-methoxyethoxy)ethyl)-N-methyl-2-phenyl-7-((tetrahydro-2H-pyran-4-yl)amino)-1H-indole-5-carboxamide]: the EC50 in the data set on cardiac cells (H9C2) is > 1000 nM.

As for `CN(CCO)CCOCc1cc(NC2CCOCC2)c2[nH]c(-c3ccccc3)cc2c1` [Example 53, 2-(methyl(2-((2-phenyl-7-((tetrahydro-2H-pyran-4-yl)amino)-1H-indol-5-yl)methoxy)ethyl)amino)ethan-1-ol], the EC50 in the data set on cardiac cells (H9C2) is ≤ 300 nM.

For `CN(CCOCCO)C(=O)c1cc(NC2CCOCC2)c2[nH]c(-c3ccccc3)cc2c1` [Example 54, N-(2-(2-hydroxyethoxy)ethyl)-N-methyl-2-phenyl-7-((tetrahydro-2H-pyran-4-yl)amino)-1H-indole-5-carboxamide], in the data set with cardiac cells (H9C2), the EC50 was 300 to 1000 nM.

As to `COCCN(C)Cc1cc(NC2CCOCC2)c2[nH]c(-c3ccccc3)cc2c1` [Example 55, 5-(((2-methoxyethyl)(methyl)amino)methyl)-2-phenyl-N-(tetrahydro-2H-pyran-4-yl)-1H-indol-7-amine], the concentration for a half-maximal effect (EC50) in the data set on cardiac cells (H9C2) was ≤ 300 nM.

On to `COCCOCCNC(=O)c1cc(NC2CCOCC2)c2[nH]c(-c3ccccc3)cc2c1` [Example 56, N-(2-(2-methoxyethoxy)ethyl)-2-phenyl-7-((tetrahydro-2H-pyran-4-yl)amino)-1H-indole-5-carboxamide], for which, in the data set with cardiac cells (H9C2), the EC50 is 300 to 1000 nM.

`COCCOCCNCc1cc(NC2CCOCC2)c2[nH]c(-c3ccccc3)cc2c1` [Example 57, 5-(((2-(2-methoxyethoxy)ethyl)amino)methyl)-2-phenyl-N-(tetrahydro-2H-pyran-4-yl)-1H-indol-7-amine]: the EC50 in the data set on cardiac cells (H9C2) is ≤ 300 nM.

As for `COCCOCCN(C)Cc1cc(NC2CCOCC2)c2[nH]c(-c3ccccc3)cc2c1` [Example 58, 5-(((2-(2-methoxyethoxy)ethyl)(methyl)amino)methyl)-2-phenyl-N-(tetrahydro-2H-pyran-4-yl)-1H-indol-7-amine], the EC50 with cardiac cells (H9C2) is ≤ 300 nM.

As to `CS(=O)(=O)NCCOCc1cc(NC2CCOCC2)c2[nH]c(-c3ccccc3)cc2c1` [Example 59, N-(2-((2-phenyl-7-((tetrahydro-2H-pyran-4-yl)amino)-1H-indol-5-yl)methoxy)ethyl)methanesulfonamide], the EC50 in the data set on cardiac cells (H9C2) was ≤ 300 nM.

As for `COCCNCCOCc1cc(NC2CCOCC2)c2[nH]c(-c3ccccc3)cc2c1` [Example 60, 5-((2-((2-methoxyethyl)amino)ethoxy)methyl)-2-phenyl-N-(tetrahydro-2H-pyran-4-yl)-1H-indol-7-amine], the EC50 in the data set on cardiac cells (H9C2) was ≤ 300 nM.

In the case of `COCCN(C)CCOCc1cc(NC2CCOCC2)c2[nH]c(-c3ccccc3)cc2c1` [Example 61, 5-((2-((2-methoxyethyl)(methyl)amino)ethoxy)methyl)-2-phenyl-N-(tetrahydro-2H-pyran-4-yl)-1H-indol-7-amine], in the data set with cardiac cells (H9C2), the EC50 was ≤ 300 nM.
